According to PubChem BioAssay AID2060902 (Molecular Pharmacology Branch, DTP, NCI, 2025):

Tested on: 485368-065-R3-J5-PDC spheroids with HUVEC/MSC, viability
Assay: Anticancer human tumor 485368-065-R3-J5-PDC patient-derived pancreatic carcinoma cell line growth inhibition [RAS]
Details: for IC50: curve of first compound; for viability, T/C: stronger effect = lower value; active = viability on the fitted dose curve at most 10% of control; inactive = the rest
Method in brief: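 Multi-cell-type spheroids: tumor cells plus HUVEC endothelial cells and mesenchymal stem cells. RAS-pathway inhibitors were combined with targeted agents, each dosed in half-log steps down from clinical Cmax, or from 10 microM when Cmax was unknown.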

[1] = second compound 0.00316 µM, first compound 0.0316 µM
[2] = second compound 0.00316 µM, first compound 0.1 µM
[3] = second compound 0.00316 µM, first compound 0.316 µM
[4] = second compound 0.00316 µM, first compound 1 µM
[5] = second compound 0.00316 µM, first compound 3.16 µM
[6] = second compound 0.00316 µM, first compound 10 µM
[7] = second compound 0.01 µM, first compound 0.0316 µM
[8] = second compound 0.01 µM, first compound 0.1 µM
[9] = second compound 0.01 µM, first compound 0.316 µM
[10] = second compound 0.01 µM, first compound 1 µM
[11] = second compound 0.01 µM, first compound 3.16 µM
[12] = second compound 0.01 µM, first compound 10 µM
[13] = second compound 0.0316 µM, first compound 0.0316 µM
[14] = second compound 0.0316 µM, first compound 0.1 µM
[15] = second compound 0.0316 µM, first compound 0.316 µM
[16] = second compound 0.0316 µM, first compound 1 µM
[17] = second compound 0.0316 µM, first compound 3.16 µM
[18] = second compound 0.0316 µM, first compound 10 µM
[19] = second compound 0.1 µM, first compound 0.0316 µM
[20] = second compound 0.1 µM, first compound 0.1 µM
[21] = second compound 0.1 µM, first compound 0.316 µM
[22] = second compound 0.1 µM, first compound 1 µM
[23] = second compound 0.1 µM, first compound 3.16 µM
[24] = second compound 0.1 µM, first compound 10 µM
[25] = second compound 0.316 µM, first compound 0.0316 µM
[26] = second compound 0.316 µM, first compound 0.1 µM
[27] = second compound 0.316 µM, first compound 0.316 µM
[28] = second compound 0.316 µM, first compound 1 µM
[29] = second compound 0.316 µM, first compound 3.16 µM
[30] = second compound 0.316 µM, first compound 10 µM
[31] = second compound 1 µM, first compound 0.0316 µM
[32] = second compound 1 µM, first compound 0.1 µM
[33] = second compound 1 µM, first compound 0.316 µM
[34] = second compound 1 µM, first compound 1 µM
[35] = second compound 1 µM, first compound 3.16 µM
[36] = second compound 1 µM, first compound 10 µM
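Also: spheroids exposed to agents for seven days before readout.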

CC1(O)CCCC1n1c(=O)c(C(F)F)cc2cnc(NC3CCN(S(C)(=O)=O)CC3)nc21 (stereo unspecified) + C=CC(=O)N1CCN(c2nc(OCC3CCCN3C)nc3c(F)c(-c4nc(N)cc(C)c4C(F)(F)F)c(Cl)cc23)C(C)C1
inactive: viability, T/C [1] 109% | viability, T/C [2] 68.7% | viability, T/C [3] 46.7% | viability, T/C [4] 48.2% | viability, T/C [5] 40.6% | viability, T/C [6] 11.1% | viability, T/C [7] 107% | viability, T/C [8] 69.5% | viability, T/C [9] 45.3% | viability, T/C [10] 38.8% | viability, T/C [11] 42.1% | viability, T/C [12] 12.6% | viability, T/C [13] 99.3% | viability, T/C [14] 62.2% | viability, T/C [15] 44.4% | viability, T/C [16] 42.2% | viability, T/C [17] 45.9% | viability, T/C [18] 11.3% | viability, T/C [19] 93.9% | viability, T/C [20] 62.8% | viability, T/C [21] 38.3% | viability, T/C [22] 41.9% | viability, T/C [23] 47.6% | viability, T/C [24] 10.6% | viability, T/C [25] 99.7% | viability, T/C [26] 64.8% | viability, T/C [27] 51.8% | viability, T/C [28] 42% | viability, T/C [29] 43.4% | viability, T/C [30] 12.5% | viability, T/C [31] 109% | viability, T/C [32] 60% | viability, T/C [33] 41.3% | viability, T/C [34] 55.7% | viability, T/C [35] 44.9% | viability, T/C [36] 11.1%
429 nM: IC50 (second compound 0.316 µM)
258 nM: IC50 (second compound 0.1 µM)
298 nM: IC50 (second compound 0.0316 µM)
314 nM: IC50 (second compound 0.01 µM)
402 nM: IC50 (second compound 0.00316 µM)
750 nM: IC50 (second compound 1 µM)

CCC(CC)c1cc(NC2CCC(N)C2)n2nccc2n1 (stereo unspecified) + C=CC(=O)N1CCN(c2nc(OCC3CCCN3C)nc3c(F)c(-c4nc(N)cc(C)c4C(F)(F)F)c(Cl)cc23)C(C)C1
1990 nM: IC50 (second compound 0.01 µM)
1950 nM: IC50 (second compound 0.00316 µM) | IC50 (second compound 0.0316 µM)
1970 nM: IC50 (second compound 0.1 µM)
inactive: viability, T/C [1] 107% | viability, T/C [2] 93% | viability, T/C [3] 114% | viability, T/C [4] 133% | viability, T/C [7] 118% | viability, T/C [8] 108% | viability, T/C [9] 109% | viability, T/C [10] 136% | viability, T/C [13] 101% | viability, T/C [14] 109% | viability, T/C [15] 112% | viability, T/C [16] 134% | viability, T/C [19] 93.7% | viability, T/C [20] 104% | viability, T/C [21] 117% | viability, T/C [22] 143% | viability, T/C [25] 94.8% | viability, T/C [26] 108% | viability, T/C [27] 106% | viability, T/C [28] 132% | viability, T/C [31] 97.5% | viability, T/C [32] 92.3% | viability, T/C [33] 120% | viability, T/C [34] 133%
1980 nM: IC50 (second compound 1 µM)
1940 nM: IC50 (second compound 0.316 µM)
active: viability, T/C [5] 3.52% | viability, T/C [6] 6.56% | viability, T/C [11] 3.73% | viability, T/C [12] 5.65% | viability, T/C [17] 3.48% | viability, T/C [18] 4.43% | viability, T/C [23] 3.81% | viability, T/C [24] 6.8% | viability, T/C [29] 3.87% | viability, T/C [30] 7.93% | viability, T/C [35] 5.49% | viability, T/C [36] 10.8%

Cc1nc(N2CCC3(CC2)COC(C)C3N)c(CO)nc1Sc1ccnc(N)c1Cl (stereo unspecified) + C=CC(=O)N1CCN(c2nc(OCC3CCCN3C)nc3c(F)c(-c4nc(N)cc(C)c4C(F)(F)F)c(Cl)cc23)C(C)C1
inactive: viability, T/C [1] 101% | viability, T/C [2] 84.3% | viability, T/C [3] 83.6% | viability, T/C [4] 68.2% | viability, T/C [5] 57.7% | viability, T/C [6] 47.6% | viability, T/C [7] 91.7% | viability, T/C [8] 89.4% | viability, T/C [9] 85.1% | viability, T/C [10] 72.8% | viability, T/C [11] 64.6% | viability, T/C [12] 45.9% | viability, T/C [13] 97.4% | viability, T/C [14] 93.1% | viability, T/C [15] 66.8% | viability, T/C [16] 61.5% | viability, T/C [17] 63.1% | viability, T/C [18] 61.7% | viability, T/C [19] 86.4% | viability, T/C [20] 81.7% | viability, T/C [21] 75.6% | viability, T/C [22] 75.6% | viability, T/C [23] 70.7% | viability, T/C [24] 53.1% | viability, T/C [25] 98.5% | viability, T/C [26] 89.7% | viability, T/C [27] 79.9% | viability, T/C [28] 77% | viability, T/C [29] 65.5% | viability, T/C [30] 51.2% | viability, T/C [31] 97.3% | viability, T/C [32] 95.8% | viability, T/C [33] 80.3% | viability, T/C [34] 73.1% | viability, T/C [35] 58.7% | viability, T/C [36] 50.1%
7830 nM: IC50 (second compound 0.01 µM)
> 10000 nM: IC50 (second compound 0.0316 µM) | IC50 (second compound 0.1 µM) | IC50 (second compound 0.316 µM) | IC50 (second compound 1 µM)
7820 nM: IC50 (second compound 0.00316 µM)
